Source: US20260248881A1, “PHARMACEUTICAL COMPOSITION COMPRISING FOXM1 INHIBITOR AND IMMUNE CHECKPOINT INHIBITOR FOR PREVENTING OR TREATING CANCER” (National Cancer Center, priority 2022, published 2026)

System: FOXM1 and PD-L1
Assay: Immunoblotting of FOXM1 and PD-L1 after FDI-6 or RCM1 treatment
Assay type: cell-based, human
Conditions: lung cancer cell line (PC9) and colorectal cancer cell line (SW480)
Experimental: Human lung cancer cell lines (H1299, PC9), colorectal cancer cell lines (HCT116, SW480), and brain tumor cell lines (U118) were purchased from the American Type Culture Collection (Manassas, VA, USA). H1299, PC9, U118, and SW480 cells were cultured in Roswell Park Memorial Institute (RPMI) medium supplemented with 10% FBS and 1% penicillin/streptomycin, and HCT116 cells were cultured in McCoy's 5A medium supplemented with 10% FBS and 1% penicillin/streptomycin. Cells were maintained at 37° C. in a humidified incubator with 5% CO2.
After washing, appropriate secondary antibodies conjugated to horseradish peroxidase were bound to the membrane, and protein bands were detected using a chemiluminescence kit (Thermo Fisher Scientific, Carlsbad, CA, USA).

## Nc1c(C(=O)Nc2ccc(F)cc2)sc2nc(-c3cccs3)cc(C(F)(F)F)c12 [FDI-6]
  FOXM1 and PD-L1 expression: significantly decreased
